Test results from paper PMC4391872, “Direct Binding of Ledipasvir to HCV NS5A: Mechanism of Resistance to an HCV Antiviral Agent” (PLoS ONE, 2015).
Read-outs that look alike come from different tables or passages of the source.

Columns and labels:
[1] = target: NS5A-Y93H-6HIS (Y93H mutant of full length NS5A, genotype 1b, Con1, with C-terminal His tag) (Hepatitis C virus genotype 1b, Con1); assay: AUC; sedimentation velocity (42,000 rpm, 3.3 and 6.6 uM) and equilibrium, 20 C, protein in C12E8 micelles, 25 mM Tris pH 7.5, 150 mM NaCl, 0.5 mM TCEP, 0.02% C12E8, 21.1% D2O (density matched to the detergent); self-association
[2] = target: T1, NS5A-6HIS (full length NS5A, genotype 1b, Con1) (Hepatitis C virus (isolate Con1), UniProt Q9WMX2); assay: competition of 3H-LDV binding, Ni-NTA capture
T1 construct: mature NS5A cut from HCV genome polyprotein; full length residues 1-447 with N-terminal amphipathic helix, C-terminal 6His tag kept; Sf9 baculovirus, C12E8 solubilised, phosphorylated
T1 sequence (Q9WMX2 1973-2419): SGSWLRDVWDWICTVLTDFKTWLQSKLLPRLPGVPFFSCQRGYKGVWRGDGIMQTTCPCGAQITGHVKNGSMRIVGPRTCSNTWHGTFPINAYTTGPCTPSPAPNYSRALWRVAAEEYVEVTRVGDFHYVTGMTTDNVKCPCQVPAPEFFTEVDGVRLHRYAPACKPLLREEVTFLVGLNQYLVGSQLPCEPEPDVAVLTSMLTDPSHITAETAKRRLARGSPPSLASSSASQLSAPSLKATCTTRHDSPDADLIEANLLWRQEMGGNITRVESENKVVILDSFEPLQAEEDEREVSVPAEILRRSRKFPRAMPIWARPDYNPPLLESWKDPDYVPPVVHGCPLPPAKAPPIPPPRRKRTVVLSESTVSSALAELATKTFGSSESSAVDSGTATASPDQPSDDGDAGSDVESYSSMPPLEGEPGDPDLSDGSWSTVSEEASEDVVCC

[3] = target: T1, NS5A-6HIS (full length NS5A, genotype 1b, Con1); assay: competition of 3H-LDV binding, Ni-NTA capture; remark: listed apart in the source
Procedure: competition of 3H-LDV binding, Ni-NTA capture on NS5A-6HIS (full length NS5A, genotype 1b, Con1) | Ki was calculated using the Cheng-Prusoff equation

[4] = target: T1, NS5A-6HIS (full length NS5A, genotype 1b, Con1); assay: radioligand saturation binding, Ni-NTA capture

Compound	Ki [3]	IC50 ([2]; read-out: IC50)	further results
NS5A-Y93H-6HIS (Y93H mutant of full length NS5A, genotype 1b, Con1, with C-terminal His tag) (natural protein)	–	–	percent dimers [1]: 3%; percent higher order oligomers [1]: 7%
O=C1N[C@H]2[C@H](CS[C@H]2CCCCC(=O)N2CCC[C@H]2C(=O)Nc2ccc(/C=C/c3ccc(NC(=O)[C@@H]4CCCN4C(=O)Cc4ccccc4)cc3)cc2)N1 [BMS-Biotin]	–	–	IC50 ([2]; read-out: no competition up to 100 μM): > 100000 nM
COC(=O)N[C@H](C(=O)N1CCC[C@H]1c1nc(-c2ccc(-c3ccc(-c4c[nH]c([C@@H]5CCCN5C(=O)[C@@H](NC(=O)OC)C(C)C)n4)cc3)cc2)c[nH]1)C(C)C [daclatasvir]	499 ± 68.3 nM	753 nM	–
COC(=O)N[C@H](C(=O)N1CC2(CC2)C[C@H]1c1ncc(-c2ccc3c(c2)C(F)(F)c2cc(-c4ccc5nc([C@@H]6[C@H]7CC[C@H](C7)N6C(=O)[C@@H](NC(=O)OC)C(C)C)[nH]c5c4)ccc2-3)[nH]1)C(C)C [ledipasvir]	98.7 ± 10.2 nM	149 nM	Kd [4]: 58.9 ± 6.6 nM
